Assay results taken from ChEMBL document CHEMBL4387741, “Optimization of novel reversible Bruton's tyrosine kinase inhibitors identified using Tethering-fragment-based screens” (Bioorg Med Chem, 2019).

Columns and labels:
[1] = biological target: Tyrosine-protein kinase ABL1 (Homo sapiens) (UniProt P00519); experiment: Inhibition of wild-type human phosphorylated ABL1 (S229 to K512 residues) expressed in mammalian expression system at 1 uM by Kinomescan method relative to control
[2] = biological target: Ribosomal protein S6 kinase alpha-2 (Homo sapiens) (UniProt Q15349); experiment: Inhibition of wild-type human partial length N-terminal RSK3 kinase domain 1 (M1 to Q385 residues) expressed in bacterial expression system at 1 uM by Kinomescan method relative to control
[3] = test system: Hepatocyte growth factor receptor (Homo sapiens), P08581 [Y1235D]; experiment: Inhibition of human partial length MET Y1235D mutant (D1010 to S1367 residues) expressed in bacterial expression system at 1 uM by Kinomescan method relative to control
[4] = biological target: Myotonin-protein kinase (Homo sapiens) (UniProt Q09013); experiment: Inhibition of wild-type human partial length DMPK (V47 to V415 residues) expressed in bacterial expression system at 1 uM by Kinomescan method relative to control
Chain of Myotonin-protein kinase (Homo sapiens) (Q09013 whole entry, the tested form may be a part, canonical isoform): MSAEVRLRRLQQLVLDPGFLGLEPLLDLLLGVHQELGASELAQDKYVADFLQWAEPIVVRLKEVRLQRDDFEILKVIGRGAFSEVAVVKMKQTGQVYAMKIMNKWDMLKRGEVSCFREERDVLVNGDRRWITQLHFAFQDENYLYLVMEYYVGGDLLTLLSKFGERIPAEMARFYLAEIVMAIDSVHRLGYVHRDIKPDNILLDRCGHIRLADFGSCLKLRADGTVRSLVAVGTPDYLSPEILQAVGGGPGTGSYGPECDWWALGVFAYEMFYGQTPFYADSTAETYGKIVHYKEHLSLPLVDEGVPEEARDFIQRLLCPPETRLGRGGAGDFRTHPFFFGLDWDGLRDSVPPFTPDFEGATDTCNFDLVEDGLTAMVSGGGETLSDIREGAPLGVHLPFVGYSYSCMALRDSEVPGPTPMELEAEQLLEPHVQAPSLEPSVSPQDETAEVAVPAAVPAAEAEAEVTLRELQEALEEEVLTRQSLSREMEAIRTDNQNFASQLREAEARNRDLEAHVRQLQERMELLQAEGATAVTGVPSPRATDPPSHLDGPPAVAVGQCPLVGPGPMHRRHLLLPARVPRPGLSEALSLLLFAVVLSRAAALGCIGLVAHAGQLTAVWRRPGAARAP

[5] = test system: Phosphatidylinositol 4,5-bisphosphate 3-kinase catalytic subunit alpha isoform (Homo sapiens), P42336 [C420R]; experiment: Inhibition of human partial length PIK3CA C420R mutant (R108 to N1068 residues) expressed in mammalian expression system at 1 uM by Kinomescan method relative to control
Chain of Phosphatidylinositol 4,5-bisphosphate 3-kinase catalytic subunit alpha isoform (Homo sapiens), P42336 [C420R] (P42336 whole entry C420R, the tested form may be a part, canonical isoform): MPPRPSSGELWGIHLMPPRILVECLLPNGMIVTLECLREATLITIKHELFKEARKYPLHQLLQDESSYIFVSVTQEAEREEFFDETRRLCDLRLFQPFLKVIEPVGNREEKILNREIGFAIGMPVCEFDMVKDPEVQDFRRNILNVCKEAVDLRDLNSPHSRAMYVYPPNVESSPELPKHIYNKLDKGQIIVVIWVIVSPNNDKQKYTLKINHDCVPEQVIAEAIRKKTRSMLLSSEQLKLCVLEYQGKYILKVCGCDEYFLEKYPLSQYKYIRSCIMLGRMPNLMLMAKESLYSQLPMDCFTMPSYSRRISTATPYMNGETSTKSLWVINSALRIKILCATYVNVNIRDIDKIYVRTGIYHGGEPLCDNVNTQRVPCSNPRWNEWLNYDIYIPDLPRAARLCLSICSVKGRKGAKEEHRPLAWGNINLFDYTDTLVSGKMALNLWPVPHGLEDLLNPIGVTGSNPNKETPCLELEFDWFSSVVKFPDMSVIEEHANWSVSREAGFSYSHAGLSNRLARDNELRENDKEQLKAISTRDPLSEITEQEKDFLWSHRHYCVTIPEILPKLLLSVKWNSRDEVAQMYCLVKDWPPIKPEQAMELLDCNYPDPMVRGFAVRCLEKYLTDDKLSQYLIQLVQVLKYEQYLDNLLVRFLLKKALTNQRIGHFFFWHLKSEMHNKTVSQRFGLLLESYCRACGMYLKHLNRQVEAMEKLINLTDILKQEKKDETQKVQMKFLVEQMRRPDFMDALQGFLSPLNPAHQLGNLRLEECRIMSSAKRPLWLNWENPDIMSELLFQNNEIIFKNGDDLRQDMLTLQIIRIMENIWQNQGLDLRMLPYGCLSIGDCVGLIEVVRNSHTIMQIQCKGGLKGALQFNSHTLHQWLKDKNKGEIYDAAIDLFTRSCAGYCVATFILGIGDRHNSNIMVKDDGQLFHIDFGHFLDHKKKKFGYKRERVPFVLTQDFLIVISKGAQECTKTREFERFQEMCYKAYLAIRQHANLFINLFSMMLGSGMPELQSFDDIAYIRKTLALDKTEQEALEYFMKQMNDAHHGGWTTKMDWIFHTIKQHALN

[6] = biological target: Cyclin-dependent kinase 19 (Homo sapiens) (UniProt Q9BWU1); experiment: Inhibition of wild-type human partial length CDK11 (M1 to N360 residues) expressed in bacterial expression system at 1 uM by Kinomescan method relative to control
[7] = biological target: Serine/threonine-protein kinase haspin (Homo sapiens) (UniProt Q8TF76); experiment: Inhibition of wild-type human partial length HASPIN (I452 to K798 residues) expressed in mammalian expression system at 1 uM by Kinomescan method relative to control
[8] = biological target: Tyrosine-protein kinase ITK/TSK (Homo sapiens) (UniProt Q08881); experiment: Inhibition of wild-type human partial length ITK (R335 to L620 residues) expressed in bacterial expression system at 1 uM by Kinomescan method relative to control
[9] = biological target: Tyrosine-protein kinase Tec (Homo sapiens) (UniProt P42680); experiment: Inhibition of wild-type human partial length TEC (L341 to D620 residues) expressed in bacterial expression system at 1 uM by Kinomescan method relative to control
[10] = biological target: Serine/threonine-protein kinase ULK1 (Homo sapiens) (UniProt O75385); experiment: Inhibition of wild-type human partial length ULK1 (M1 to T309 residues) expressed in mammalian expression system at 1 uM by Kinomescan method relative to control
[11] = test system: Phosphatidylinositol 4,5-bisphosphate 3-kinase catalytic subunit alpha isoform (Homo sapiens), P42336 [M1043I]; experiment: Inhibition of human partial length PIK3CA M1043I mutant (R108 to N1068 residues) expressed in mammalian expression system at 1 uM by Kinomescan method relative to control
[12] = test system: Epidermal growth factor receptor (Homo sapiens), P00533 [L858R,T790M]; experiment: Inhibition of human partial length EGFR L858R/T790M double mutant (R669 to V1011 residues) expressed in mammalian expression system at 1 uM by Kinomescan method relative to control
[13] = biological target: MAP kinase-activated protein kinase 5 (Homo sapiens) (UniProt Q8IW41); experiment: Inhibition of wild-type human partial length MAPKAPK5 (M1 to D322 residues) expressed in mammalian expression system at 1 uM by Kinomescan method relative to control
[14] = biological target: Serine/threonine-protein kinase Nek2 (Homo sapiens) (UniProt P51955); experiment: Inhibition of wild-type human partial length NEK2 (M1 to K309 residues) expressed in bacterial expression system at 10 uM by Kinomescan method relative to control
[15] = biological target: Maternal embryonic leucine zipper kinase (Homo sapiens) (UniProt Q14680); experiment: Inhibition of wild-type human full length MELK (M1 to V651 residues) expressed in bacterial expression system at 10 uM by Kinomescan method relative to control
Chain of Maternal embryonic leucine zipper kinase (Homo sapiens) (Q14680 whole entry, looked up, the tested form may be a part): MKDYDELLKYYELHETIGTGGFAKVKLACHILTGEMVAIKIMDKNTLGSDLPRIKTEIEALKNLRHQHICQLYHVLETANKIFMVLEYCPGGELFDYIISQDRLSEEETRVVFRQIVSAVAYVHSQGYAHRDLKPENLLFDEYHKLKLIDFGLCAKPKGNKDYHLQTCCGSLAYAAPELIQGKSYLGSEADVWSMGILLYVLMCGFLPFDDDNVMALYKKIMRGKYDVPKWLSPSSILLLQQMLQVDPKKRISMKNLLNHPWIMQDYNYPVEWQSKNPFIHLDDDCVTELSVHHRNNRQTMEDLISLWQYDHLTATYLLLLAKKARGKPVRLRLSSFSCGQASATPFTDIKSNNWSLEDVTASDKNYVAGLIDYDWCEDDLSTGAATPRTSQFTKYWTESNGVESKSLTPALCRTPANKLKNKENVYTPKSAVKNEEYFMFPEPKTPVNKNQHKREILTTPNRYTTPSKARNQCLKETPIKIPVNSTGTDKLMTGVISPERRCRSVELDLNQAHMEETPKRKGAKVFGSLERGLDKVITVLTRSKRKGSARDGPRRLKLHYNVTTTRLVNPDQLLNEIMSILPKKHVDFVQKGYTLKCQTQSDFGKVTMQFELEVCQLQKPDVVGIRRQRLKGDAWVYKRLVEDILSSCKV

[16] = biological target: Wee1-like protein kinase 2 (Homo sapiens) (UniProt P0C1S8); experiment: Inhibition of wild-type human partial length WEE2 (M204 to K492 residues) expressed in bacterial expression system at 10 uM by Kinomescan method relative to control
[17] = biological target: Myosin-IIIb (Homo sapiens) (UniProt Q8WXR4); experiment: Inhibition of wild-type human partial length MYO3B (M1 to D357 residues) expressed in bacterial expression system at 10 uM by Kinomescan method relative to control
[18] = biological target: Mitogen-activated protein kinase kinase kinase 3 (Homo sapiens) (UniProt Q99759); experiment: Inhibition of wild-type human partial length MAP3K3 (E320 to Y626 residues) expressed in mammalian expression system at 10 uM by Kinomescan method relative to control
[19] = biological target: Aurora kinase B (Homo sapiens) (UniProt Q96GD4); experiment: Inhibition of wild-type human partial length AURKB (D25 to A303 residues) expressed in mammalian expression system at 10 uM by Kinomescan method relative to control
[20] = biological target: 5'-AMP-activated protein kinase catalytic subunit alpha-1 (Homo sapiens) (UniProt Q13131); experiment: Inhibition of wild-type human partial length AMPK alpha1 (M1 to E306 residues) expressed in bacterial expression system at 10 uM by Kinomescan method relative to control
[21] = biological target: Serine/threonine-protein kinase NIM1 (Homo sapiens) (UniProt Q8IY84); experiment: Inhibition of wild-type human partial length NIM1 (Q44 to N355 residues) expressed in mammalian expression system at 10 uM by Kinomescan method relative to control
[22] = biological target: Serine/threonine-protein kinase 38-like (Homo sapiens) (UniProt Q9Y2H1); experiment: Inhibition of wild-type human partial length NDR2 (N34 to E447 residues) expressed in bacterial expression system at 10 uM by Kinomescan method relative to control
[23] = test system: Phosphatidylinositol 4,5-bisphosphate 3-kinase catalytic subunit alpha isoform (Homo sapiens), P42336 [H1047Y]; experiment: Inhibition of human partial length PIK3CA H1047Y mutant (R108 to N1068 residues) expressed in mammalian expression system at 10 uM by Kinomescan method relative to control
Chain of Phosphatidylinositol 4,5-bisphosphate 3-kinase catalytic subunit alpha isoform (Homo sapiens), P42336 [H1047Y] (P42336 whole entry H1047Y, the tested form may be a part, canonical isoform): as the sequence (P42336 whole entry C420R, the tested form may be a part, canonical isoform) above, with R420C, H1047Y counted along it

[24] = biological target: Testis-specific serine/threonine-protein kinase 3 (Homo sapiens) (UniProt Q96PN8); experiment: Inhibition of wild-type human full length TSSK3 (M1 to T268 residues) expressed in mammalian expression system at 10 uM by Kinomescan method relative to control
[25] = test system: Phosphatidylinositol 4,5-bisphosphate 3-kinase catalytic subunit alpha isoform (Homo sapiens), P42336 [E542K]; experiment: Inhibition of human partial length PIK3CA E542K mutant (R108 to N1068 residues) expressed in mammalian expression system at 10 uM by Kinomescan method relative to control
[26] = biological target: Serine/threonine-protein kinase 26 (Homo sapiens) (UniProt Q9P289); experiment: Inhibition of wild-type human full length MST4 (M1 to P416 residues) expressed in mammalian expression system at 10 uM by Kinomescan method relative to control
Chain of Serine/threonine-protein kinase 26 (Homo sapiens) (Q9P289 2-416 limits assumed): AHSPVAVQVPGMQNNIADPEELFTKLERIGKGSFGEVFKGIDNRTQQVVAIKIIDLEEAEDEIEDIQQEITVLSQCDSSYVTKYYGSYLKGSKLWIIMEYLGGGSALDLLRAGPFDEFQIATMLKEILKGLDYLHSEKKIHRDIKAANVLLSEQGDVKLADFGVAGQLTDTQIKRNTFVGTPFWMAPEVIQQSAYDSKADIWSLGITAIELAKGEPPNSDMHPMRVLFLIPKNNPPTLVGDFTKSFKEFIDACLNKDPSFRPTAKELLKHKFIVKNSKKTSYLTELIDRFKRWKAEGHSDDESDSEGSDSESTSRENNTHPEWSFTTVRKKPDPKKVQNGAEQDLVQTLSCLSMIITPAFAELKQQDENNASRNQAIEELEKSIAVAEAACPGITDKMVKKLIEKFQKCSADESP

Chain of Tyrosine-protein kinase ABL1 (Homo sapiens) (P00519 whole entry, the tested form may be a part): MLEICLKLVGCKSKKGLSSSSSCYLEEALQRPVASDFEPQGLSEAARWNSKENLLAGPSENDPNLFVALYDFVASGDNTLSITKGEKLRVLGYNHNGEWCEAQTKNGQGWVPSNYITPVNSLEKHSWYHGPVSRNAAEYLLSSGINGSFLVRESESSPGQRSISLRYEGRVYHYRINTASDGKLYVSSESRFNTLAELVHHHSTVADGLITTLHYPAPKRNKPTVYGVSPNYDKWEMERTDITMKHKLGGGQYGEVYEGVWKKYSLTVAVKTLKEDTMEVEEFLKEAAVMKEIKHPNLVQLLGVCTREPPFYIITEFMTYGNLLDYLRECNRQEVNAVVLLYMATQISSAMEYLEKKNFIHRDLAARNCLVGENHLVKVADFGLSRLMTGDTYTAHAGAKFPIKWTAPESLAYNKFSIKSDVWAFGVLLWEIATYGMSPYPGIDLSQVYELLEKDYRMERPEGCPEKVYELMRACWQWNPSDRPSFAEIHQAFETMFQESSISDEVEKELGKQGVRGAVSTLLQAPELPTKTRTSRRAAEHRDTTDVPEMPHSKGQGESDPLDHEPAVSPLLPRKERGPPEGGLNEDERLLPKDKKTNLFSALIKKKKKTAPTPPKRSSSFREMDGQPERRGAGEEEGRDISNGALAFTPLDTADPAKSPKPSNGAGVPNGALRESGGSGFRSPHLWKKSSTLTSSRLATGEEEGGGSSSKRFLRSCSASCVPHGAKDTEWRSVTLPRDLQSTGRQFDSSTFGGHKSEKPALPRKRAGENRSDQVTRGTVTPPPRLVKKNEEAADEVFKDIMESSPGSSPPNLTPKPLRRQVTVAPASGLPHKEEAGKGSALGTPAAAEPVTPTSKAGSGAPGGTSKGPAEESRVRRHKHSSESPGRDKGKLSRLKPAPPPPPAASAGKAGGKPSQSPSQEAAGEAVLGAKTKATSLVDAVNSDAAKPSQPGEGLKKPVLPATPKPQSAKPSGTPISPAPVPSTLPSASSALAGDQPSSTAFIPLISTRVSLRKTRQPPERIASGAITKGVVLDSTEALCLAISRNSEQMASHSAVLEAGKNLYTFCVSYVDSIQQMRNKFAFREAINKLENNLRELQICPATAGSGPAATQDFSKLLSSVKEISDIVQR

Work on `O=C(Nc1cccc([C@@H]2CN(c3ncnc4[nH]ccc34)CCN2CCO)c1)Nc1c(F)cccc1N1CCCC1` yielded an inhibition [1] of 62%, an inhibition [2] of 88% and an inhibition [3] of 67%. It also gave an inhibition [4] of 100%, an inhibition [5] of 89% and an inhibition [6] of 100%. For the same compound, the inhibition [7] was 78%, the inhibition [8] was 0.8% and the inhibition [9] was 45%. It also gave an inhibition [10] of 60%, an inhibition [11] of 94% and an inhibition [12] of 97%. For the same compound, the inhibition [13] was 100%.

In the case of `O=C(Nc1cccc([C@H]2CCCN(c3ncnc4[nH]ccc34)C2)c1)Nc1ccccc1N1CCCC1`, the inhibition [14] is reported as 94%, the inhibition [15] is reported as 36% and the inhibition [16] is reported as 100%. For the same compound, the inhibition [17] was 60%, the inhibition [18] was 24% and the inhibition [19] was 1.1%. It also gave an inhibition [20] of 6.6%, an inhibition [21] of 75% and an inhibition [22] of 100%. It also gave an inhibition [23] of 61%, an inhibition [24] of 85% and an inhibition [25] of 81%. It also gave an inhibition [26] of 62%.
